Values after ≈ are worked out from the molar mass of the structure shown.
What was measured:
Format in all cases: cell-based
[1] = system: Candida albican ATCC MYA-1003; test: In vitro antifungal activity (MIC80), Candida albican ATCC MYA-1003; details: Candida; Table 2, MYA 1003; read-out: Minimal inhibitory concentration (MIC80)
Protocol: (§1) In vitro antifungal activities of the inventive antifungal compounds were evaluated using test strains including Candida albican (ATCC 90873, 204276, 62342, 64124, 64550, 96901, MYA-573, MYA-574, MYA-575, MYA-576, MYA-1003) and Aspergillus fumigatus (ATCC 16424). Test samples and positive control samples were prepared by dissolving the inventive compounds and comparative compounds, i.e., amphotericin B, fluconazole and itraconazole, in DMSO, respectively, and each successively diluted with medium to obtain test and positive control solutions having test compound concentrations of 0.125 μg/ml to a maximum concentration not generating turbidity. Minimal inhibitory concentration (MIC80) of each compound was determined as the lowest concentration of the test compounds required to reduce growth by 80% relative to a control strain not treated.
(§2) 1) Test strain: Candida albican ATCC 90873, 204276, 62342, 64124, 64550, 96901, MYA-573, MYA-574, MYA-575, MYA-576, MYA-1003, and Aspergillus fumigatus ATCC 16424 were commercially obtained from The American Type Culture Collection (ATCC) and subcultured in CHEMON Co. Ltd. (amphotericin B was commercially purchased from Sigma, and fluconazole and itraconazole were prepared according to methods described in British Patent No. 2,099,818; and U.S. Pat. No. 4,267,179, respectively).
(§3) 2) Medium and culture condition: Candida albican was cultured in Sabourad Dextrose Agar, YM Agar or Potato Dextrose Agar according to ATCC information at a temperature of 37° C., 35° C., 30° C. or 25° C. Aspergillus fumigatus was cultured in Malt Extract Agar or Potato Dextrose Agar at a temperature ranging from 24 to 27° C.
(§4) 3) Preparation of test samples: the inventive compounds and comparative compounds were each diluted with DMSO to obtain 1 to 2 ml of a test sample in a concentration of 100-folds of the determining maximum concentration (256 μg/ml).
(§5) The test samples were each successively diluted with RPMI 1640 to obtain test solutions having concentrations of […] in a 12×75 mm sterilized disposable culture tube. The final concentration of DMSO was adjusted to […] (v/v).
(§6) 5) Preparation of strain solution and inoculation
(§7) Candida albican strains were each subcultured in Sabourad Dextrose Agar, YM Agar or Potato Dextrose Agar medium at 35° C. for 2˜3 days. In the case of yeasts, a single colony was taken from prominent colonies and suspended in 0.85% sterile physiological saline solution and the turbidity of the suspension was adjusted to 80˜82% at 530 nm, and then diluted 50-fold with RPMI 1640 medium to 1.0×10^3˜5.0×10^3 CFU/ml. The turbidity of fungi was adjusted to 80˜82% and the suspension was diluted 50-fold to […]. Aspergillus fumigatus strains were subcultured in Malt Extract Agar for 7˜10 days, and a single colony was taken from prominent colonies and suspended in 0.85% sterile physiological saline solution and the suspension was adjusted to 0.108 at 530 nm, and then diluted 1000-fold with RPMI 1640 medium to 0.4×10^2˜5×10^4 CFU/ml. The turbidity of fungi was adjusted to 80˜82% and the suspension was diluted 50-fold to 0.4102˜0.5104 CFU/ml.
(§8) The strain solutions thus obtained were each seeded into a sterilized 96-well microplate, 0.1 ml of each test solution were added thereto, and […] of alamarblue was treated to each well (Biosource, #DAL1100). This procedure was repeated 2 times.
(§9) Minimal inhibitory concentration (MIC80) of each compound was determined as the lowest concentration of the test compounds required to reduce growth by 80% relative to a control strain not treated.

[2] = system: Candida albican ATCC MYA-573; test: In vitro antifungal activity (MIC80), Candida albican ATCC MYA-573; details: Candida; Table 2, MYA 573; read-out: Minimal inhibitory concentration (MIC80)
Protocol: as §1, §2, §3, §4, §5, §6, §7, §8, §9

[3] = system: Candida albican ATCC 96901; test: In vitro antifungal activity (MIC80), Candida albican ATCC 96901; details: Candida, ATCC96901; Table 2, ATCC 96901; read-out: Minimal inhibitory concentration (MIC80)
Protocol: as §1, §2, §3, §4, §5, §6, §7, §8, §9

[4] = system: Candida albican ATCC 90873; test: In vitro antifungal activity (MIC80), Candida albican ATCC 90873; details: Candida, ATCC90873; Table 2, ATCC 90873; read-out: Minimal inhibitory concentration (MIC80)
Protocol: as §1, §2, §3, §4, §5, §6, §7, §8, §9

[5] = system: Aspergillus fumigatus (ATCC 16424); test: In vitro antifungal activity (MIC80), Aspergillus fumigatus ATCC 16424; details: Aspergillus fumigatus, ATCC16424, Table 2, ATCC 16424; read-out: Minimal inhibitory concentration (MIC80)
Protocol: as §1, §2, §3, §4, §5, §6, §7, §8, §9
MIC80 of each of the compounds of which antifungal activities can be confirmed by Table 2 was determined using other test strains, i.e., Aspergillus fumigatus ATCC 16424 and MYA-1163, Aspergillus terreus ATCC 28301, Aspergillus flavus ATCC MYA-1004, and Aspergillus niger ATCC 9142.

[6] = system: Candida albican ATCC 64124; test: In vitro antifungal activity (MIC80), Candida albican ATCC 64124; details: Candida, ATCC64124; Table 2, 64124; read-out: Minimal inhibitory concentration (MIC80)
Protocol: as §1, §2, §3, §4, §5, §6, §7, §8, §9

[7] = system: Candida albican ATCC 64550; test: In vitro antifungal activity (MIC80), Candida albican ATCC 64550; details: Candida, ATCC64550; Table 2, 64550; read-out: Minimal inhibitory concentration (MIC80)
Protocol: as §1, §2, §3, §4, §5, §6, §7, §8, §9

[8] = system: Candida albican ATCC 62342; test: In vitro antifungal activity (MIC80), Candida albican ATCC 62342; details: Candida, ATCC62342; Table 2, 62342; read-out: Minimal inhibitory concentration (MIC80)
Protocol: as §1, §2, §3, §4, §5, §6, §7, §8, §9

[9] = system: Candida albican ATCC MYA-574; test: In vitro antifungal activity (MIC80), Candida albican ATCC MYA-574; details: Candida; Table 2, MYA 574; read-out: Minimal inhibitory concentration (MIC80)
Protocol: as §1, §2, §3, §4, §5, §6, §7, §8, §9

[10] = system: Candida albican ATCC MYA-575; test: In vitro antifungal activity (MIC80), Candida albican ATCC MYA-575; details: Candida; Table 2, MYA 575; read-out: Minimal inhibitory concentration (MIC80)
Protocol: as §1, §2, §3, §4, §5, §6, §7, §8, §9

[11] = system: Candida albican ATCC MYA-576; test: In vitro antifungal activity (MIC80), Candida albican ATCC MYA-576; details: Candida; Table 2, MYA 576; read-out: Minimal inhibitory concentration (MIC80)
Protocol: as §1, §2, §3, §4, §5, §6, §7, §8, §9

| Compound | MIC80 [1] [µg/mL] | MIC80 [2] [µg/mL] | MIC80 [3] [µg/mL] | MIC80 [4] [µg/mL] | MIC80 [5] [µg/mL] | MIC80 [6] [µg/mL] | MIC80 [7] [µg/mL] | MIC80 [8] [µg/mL] | MIC80 [9] [µg/mL] | MIC80 [10] [µg/mL] | MIC80 [11] [µg/mL] |
| --- | --- | --- | --- | --- | --- | --- | --- | --- | --- | --- | --- |
| COc1ccc(-c2noc(C(=O)N3CCN([C@H](C)[C@](O)(Cn4cncn4)c4ccc(F)cc4F)CC3)n2)cc1 [Example 49, (4-((2R,3R)-3-(2,4-difluorophenyl)-3-hydroxy-4-(1H-1,2,4-triazol-1-yl)butan-2-yl)piperazin-1-yl)(3-(4-methoxyphenyl)-1,2,4-oxadiazol-5-yl)methanone] | > 128 | 1 (≈ 1.85 µM) | > 128 | 0.125 (≈ 0.232 µM) | 0.5 (≈ 0.927 µM) |  |  |  |  |  |  |
| C[C@@H](N1CCN(C(=O)c2nc(-c3ccc(Br)cc3)no2)CC1)[C@](O)(Cn1cncn1)c1ccc(F)cc1F [Example 46, (3-(4-bromophenyl)-1,2,4-oxadiazol-5-yl)(4-((2R,3R)-3-(2,4-difluorophenyl)-3-hydroxy-4-(1H-1,2,4-triazol-1-yl)butan-2-yl)piperazin-1-yl)methanone] | > 128 | > 128 | > 128 | 0.125 (≈ 0.212 µM) | 0.126 (≈ 0.214 µM) |  |  |  |  |  |  |
| C[C@@H](N1CCN(Cc2ccncc2)CC1)[C@](O)(Cn1cncn1)c1ccc(F)cc1F [Example 42, (2R,3R)-2-(2,4-difluorophenyl)-3-(4-((pyridin-4-yl)methyl)piperazin-1-yl)-1-(1H-1,2,4-triazol-1-yl)butan-2-ol] | 128 (≈ 299 µM) | 1 (≈ 2.33 µM) | 64 (≈ 149 µM) | 0.125 (≈ 0.292 µM) |  | 64 (≈ 149 µM) | 4 (≈ 9.34 µM) | 0.5 (≈ 1.17 µM) | 4 (≈ 9.34 µM) | 0.5 (≈ 1.17 µM) | 0.125 (≈ 0.292 µM) |
| CC(N1CCN(c2ccc(N(C)CCCN3CCOCC3)nc2)CC1)C(O)(Cn1cncn1)c1ccc(F)cc1F (centres unmarked) [Example 36] | 128 (≈ 224 µM) | 8 (≈ 14 µM) | 16 (≈ 28 µM) | 2 (≈ 3.5 µM) |  | 128 (≈ 224 µM) | 16 (≈ 28 µM) | 4 (≈ 7.01 µM) | 8 (≈ 14 µM) | 2 (≈ 3.5 µM) | 4 (≈ 7.01 µM) |

More lines, now with the values ahead:

| MIC80 [1] [µg/mL] | MIC80 [2] [µg/mL] | MIC80 [3] [µg/mL] | MIC80 [4] [µg/mL] | MIC80 [5] [µg/mL] | MIC80 [6] [µg/mL] | MIC80 [7] [µg/mL] | MIC80 [8] [µg/mL] | MIC80 [9] [µg/mL] | MIC80 [10] [µg/mL] | MIC80 [11] [µg/mL] | Compound |
| --- | --- | --- | --- | --- | --- | --- | --- | --- | --- | --- | --- |
| > 128 | 1 (≈ 1.92 µM) | > 128 | 0.125 (≈ 0.24 µM) |  | 4 (≈ 7.68 µM) | 1 (≈ 1.92 µM) | 0.5 (≈ 0.96 µM) | 1 (≈ 1.92 µM) | 0.25 (≈ 0.48 µM) | 0.125 (≈ 0.24 µM) | C[C@@H](N1CCN(c2ccc(OCc3ccccc3)nc2)CC1)[C@](O)(Cn1cncn1)c1ccc(F)cc1F [Example 29, (2R,3R)-3-(4-(6-(benzyloxy)pyridin-3-yl)piperazin-1-yl)-2-(2,4-difluorophenyl)-1-(1H-1,2,4-triazol-1-yl)butan-2-ol] |
| > 128 | 0.5 (≈ 1.07 µM) | 16 (≈ 34.2 µM) | 0.125 (≈ 0.267 µM) |  | 8 (≈ 17.1 µM) | 2 (≈ 4.27 µM) | 0.25 (≈ 0.534 µM) | 1 (≈ 2.13 µM) | 0.125 (≈ 0.267 µM) | 0.125 (≈ 0.267 µM) | C[C@@H](N1CCCN(c2nc3ccccc3o2)CC1)[C@](O)(Cn1cncn1)c1ccc(F)cc1F [Example 15, (2R,3R)-3-(4-(benzooxazol-2-yl)-1,4-diazepan-1-yl)-2-(2,4-difluorophenyl)-1-(1H-1,2,4-triazol-1-yl)butan-2-ol] |
| > 128 | 2 (≈ 3.8 µM) | > 128 | 0.25 (≈ 0.475 µM) |  | > 128 | > 128 | > 128 | > 128 | 1 (≈ 1.9 µM) | 0.5 (≈ 0.949 µM) | C[C@@H](N1CCN(c2cccc(OCc3cccs3)n2)CC1)[C@](O)(Cn1cncn1)c1ccc(F)cc1F [Example 25, (2R,3R)-2-(2,4-difluorophenyl)-3-(4-(6-(thiophen-2-ylmethoxy)pyridin-2-yl)piperazin-1-yl)-1-(1H-1,2,4-triazol-1-yl)butan-2-ol] |
| > 128 | 8 (≈ 16.5 µM) | > 128 | 0.125 (≈ 0.258 µM) |  | > 128 | 8 (≈ 16.5 µM) | 8 (≈ 16.5 µM) | 128 (≈ 264 µM) | 0.25 (≈ 0.516 µM) | 0.25 (≈ 0.516 µM) | C[C@@H](N1CCN(c2cccc(OCC3CC3)n2)CC1)[C@](O)(Cn1cncn1)c1ccc(F)cc1F [Example 21, (2R,3R)-3-(4-(6-(cyclopropylmethoxy)pyridin-2-yl)piperazin-1-yl)-2-(2,4-difluorophenyl)-1-(1H-1,2,4-triazol-1-yl)butan-2-ol] |
| > 128 | 1 (≈ 2.06 µM) | 32 (≈ 66 µM) | 0.125 (≈ 0.258 µM) |  | 32 (≈ 66 µM) | 1 (≈ 2.06 µM) | 1 (≈ 2.06 µM) | 4 (≈ 8.26 µM) | 0.125 (≈ 0.258 µM) | 0.125 (≈ 0.258 µM) | C[C@@H](N1CCN(c2ccc(OCC3CC3)nc2)CC1)[C@](O)(Cn1cncn1)c1ccc(F)cc1F [Example 30, (2R,3R)-3-(4-(6-(cyclopropylmethoxy)pyridin-3-yl)piperazin-1-yl)-2-(2,4-difluorophenyl)-1-(1H-1,2,4-triazol-1-yl)butan-2-ol] |
